Test results as given in patent US20130190223A1, “NONIMMUNOSUPPRESSIVE CYCLOSPORINE ANALOGUE MOLECULES” (ISOTECHNIKA PHARMA INC., priority 2008, published 2013).
Where two headings read alike, the source gives them in different places.

Tests used:
CyP-D = target: T1, CyP-D (Rattus norvegicus, UniProt P29117); assay type: biochemical; settings: mitochondria isolated from rat liver, 190 μM calcium, swelling as decline in A540
T1 construct: Mitochondria were isolated from fresh rat liver; from tissue; host or cells: rat liver mitochondria
T1 sequence (P29117 30-206): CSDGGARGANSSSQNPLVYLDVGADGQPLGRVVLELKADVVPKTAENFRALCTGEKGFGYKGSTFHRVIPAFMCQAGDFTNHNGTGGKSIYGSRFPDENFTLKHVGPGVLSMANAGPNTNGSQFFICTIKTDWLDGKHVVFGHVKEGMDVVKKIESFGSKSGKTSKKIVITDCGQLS
Excerpt: A mitochondria swelling assay was used to measure the efficacy of NICAMs in blocking CyP-D and mitochondrial permeability transition. Under certain pathological conditions, mitochondria lose the ability to regulate calcium levels, and excessive calcium accumulation in the mitochondrial matrix results in the opening of large pores in the inner mitochondrial membrane. Nonselective conductance of ions and molecules up to 1.5 kilodaltons through the pore, a process called mitochondrial permeability transition, leads to swelling of mitochondria and other events which culminate in cell death. […] In general, mitochondria isolated from rat liver were exposed to calcium to induce MPTP opening in the absence or presence of test compounds, and calcium-induced swelling was measured as a reduction in light absorbance at 540 nm.
Mitochondria were isolated from fresh rat liver. Ice-cold or 4° C. conditions were used throughout all steps of the isolation. The liver was rinsed thoroughly and chopped in a small volume of isolation buffer (IB; 10 mM Hepes, 70 mM sucrose, 210 mM mannitol, 0.5 mM EDTA). Aliquots of the minced liver were homogenized in IB using a Teflon-glass Potter-Elvehjem tissue grinder and passed through a cell screen filter. The filtered homogenate was centrifuged at 600 g for 10 min, then the resulting supernatant centrifuged at 7000 g for 10 min. The supernatant was discarded, and the pellet resuspended in wash buffer (10 mM Hepes, 70 mM sucrose, 210 mM mannitol) and centrifuged a final time at 7000 g for 10 min. The supernatant was discarded, and the mitochondria-containing pellet suspended and stored on ice in 2 mL of respiration buffer (RB; 5 mM Hepes, 70 mM sucrose, 210 mM mannitol, 10 mM sodium succinate, 1 mM sodium phosphate dibasic).
Test compound solutions were prepared from 10 mg/ml stocks (dimethyl sulfoxide vehicle) first by diluting the test compound 1000× into respiration buffer #2 (RB2; 5 mM Hepes, 70 mM sucrose, 210 mM mannitol, 10 mM sodium succinate, 1 mM sodium phosphate dibasic, 1% fetal bovine serum, 2 μM rotenone), then by 3×-serial dilutions in RB2 to achieve test compound concentrations of 10000, 3333, 1111, 370, 123, 41, and 14 ng/mL. Polystyrene tubes and plates were used for all preparations.
Swelling assays were completed in a 96-well flat-bottom polystyrene plates. In each well a 10-μL aliquot of mitochondria suspension, equivalent to 100-200 μg total protein, was combined with 90 μL of test compound, incubated for 10 min, then the baseline absorbance measured on a plate reader (540 nm wavelength; A540). Swelling was induced by adding 5 μL of 4 mM calcium chloride to achieve a final calcium concentration of 190 μM. Mitochondria swelling was indicated by a decline in A540. […] Duplicate samples were assayed for each test compound concentration.
Means and ranges of duplicate samples are shown.

human lymphocytes = assay: Immunosuppressive potency: inhibition of proliferation of anti-CD3 stimulated human lymphocytes (CFSE, flow cytometry); assay type: cell-based; settings: relative potency: IC50 for inhibition of cell division normalized to CsA, 3 days incubation
Method: The immunosuppressive potency of test compounds was assessed by measuring their ability to inhibit the proliferation of human lymphocytes in cell culture. Lymphocytes were isolated from blood of normal human volunteers by Ficoll-gradient centrifugation and stained with 2 μg/ml carboxyfluoroscein diacetate succinimydyl ester (CFSE), a fluorescent cell division tracer molecule. Cells were stimulated through the CD3/T-cell receptor by seeding cells at 300,000/well into 96-well flat-bottom, high-binding plates coated with 1 μg/ml UCHT-1 anti-human CD3 antibody. Test compounds were prepared first as 10 mg/ml stock solutions in dimethylsulfoxide (DMSO). Test solutions were prepared by 500-fold dilution of the DMSO stock solutions, then 3-fold serial dilutions in cell culture medium (RPMI+5% FBS+penicillin-steptomycin) for a total of 7 concentrations per compound. Test solutions were added in equal volume to the culture wells containing cells to achieve final concentrations after dilution of 13.7 ng/ml-10,000 ng/ml. […] Following 3 days incubation cells were stained with CD95-APC (lymphocyte activation marker) and analyzed by flow cytometry with a Becton Dickinson FACSCalibur. Percentage cell division was assessed in forward/side-scatter-gated lymphocytes by measuring the proportion of cells that underwent one or more cell divisions as determined by serial halving of CFSE intensity. The nondivided parent population was determined from samples maintained in culture without anti-CD3 stimulation. IC50 values for inhibition of cell division were determined by nonlinear regression analysis. […]

calcineurin = settings: literature statement; cited from earlier work
CyP-A = CyP-A (Homo sapiens, UniProt P62937); settings: cited from earlier work
Chain of CyP-A (P62937 whole entry): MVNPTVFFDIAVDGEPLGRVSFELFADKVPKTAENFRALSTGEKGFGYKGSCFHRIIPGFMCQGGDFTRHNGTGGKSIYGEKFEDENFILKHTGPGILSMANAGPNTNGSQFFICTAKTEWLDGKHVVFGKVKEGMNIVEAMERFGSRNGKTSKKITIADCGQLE

CCOC(=O)CCCCCCC=CCC(C)C(O)C1C(=O)NC(CC)C(=O)N(C)CC(=O)N(C)C(CC(C)C)C(=O)NC(C(C)C)C(=O)N(C)C(CC(C)C)C(=O)NC(C)C(=O)NC(C)C(=O)N(C)C(CC(C)C)C(=O)N(C)C(CC(C)C)C(=O)N(C)C(C(C)C)C(=O)N1C (stereo not drawn) [Compound 420-113]
CYP-D Inhibition (% Potency Vs CsA) (CyP-D): 33.2% | Immunosuppression (% Relative to CsA) (human lymphocytes): <1%

CCC1NC(=O)C(C(O)C(C)CC=CCCCCCCC(=O)N(C)C)N(C)C(=O)C(C(C)C)N(C)C(=O)C(CC(C)C)N(C)C(=O)C(CC(C)C)N(C)C(=O)C(C)NC(=O)C(C)NC(=O)C(CC(C)C)N(C)C(=O)C(C(C)C)NC(=O)C(CC(C)C)N(C)C(=O)CN(C)C1=O (stereo not drawn) [Compound 420-114]
CYP-D Inhibition (% Potency Vs CsA) (CyP-D): 63.4% | Immunosuppression (% Relative to CsA) (human lymphocytes): <1%

CCC1NC(=O)C(C(O)C(C)CC=CCCCCCCNC(=O)OC(C)(C)C)N(C)C(=O)C(C(C)C)N(C)C(=O)C(CC(C)C)N(C)C(=O)C(CC(C)C)N(C)C(=O)C(C)NC(=O)C(C)NC(=O)C(CC(C)C)N(C)C(=O)C(C(C)C)NC(=O)C(CC(C)C)N(C)C(=O)CN(C)C1=O (stereo not drawn) [Compound 420-120]
CYP-D Inhibition (% Potency Vs CsA) (CyP-D): 9.4% | Immunosuppression (% Relative to CsA) (human lymphocytes): 3%

C/C=C/C[C@@H](C)[C@@H](O)[C@H]1C(=O)N[C@@H](CC)C(=O)N(C)[C@H](C)C(=O)N(CC)[C@@H](C(C)C)C(=O)N[C@@H](C(C)C)C(=O)N(C)[C@@H](CC(C)C)C(=O)N[C@@H](C)C(=O)N[C@H](C)C(=O)N(C)[C@@H](CC(C)C)C(=O)N(C)[C@@H](CC(C)C)C(=O)N(C)[C@@H](C(C)C)C(=O)N1C [DEBIO 025, MeAla^3EtVal^4-Cyclosporin]
immunosuppressive activity (calcineurin): no immunosuppressive activity | binding affinity for CyP-A (CyP-A): retains binding affinity for CyP-A

C/C=C/C[C@@H](C)[C@@H](O)[C@H]1C(=O)N[C@@H](CC)C(=O)N(C)CC(=O)N(C)[C@@H]([C@@H](C)CC)C(=O)N[C@@H](C(C)C)C(=O)N(C)[C@@H](CC(C)C)C(=O)N[C@@H](C)C(=O)N[C@H](C)C(=O)N(C)[C@@H](CC(C)C)C(=O)N(C)[C@@H](CC(C)C)C(=O)N(C)[C@@H](C(C)C)C(=O)N1C [NIM 811, Melle^4-cyclosporine]
immunosuppressive activity (calcineurin): no immunosuppressive activity | binding affinity for CyP-A (CyP-A; literature statement): retains binding affinity for CyP-A

C/C=C/C[C@@H](C)[C@@H](O)[C@H]1C(=O)N[C@@H](CC)C(=O)N(C)[C@H](SCCN(C)C)C(=O)N(C)[C@@H](CC(C)(C)O)C(=O)N[C@@H](C(C)C)C(=O)N(C)[C@@H](CC(C)C)C(=O)N[C@@H](C)C(=O)N[C@H](C)C(=O)N(C)[C@@H](CC(C)C)C(=O)N(C)[C@@H](CC(C)C)C(=O)N(C)[C@@H](C(C)C)C(=O)N1C [SCY-635, DimethylaminoethylthioSar^3-hydroxyLeu^4-Cyclosporin]
immunosuppressive activity (calcineurin): no immunosuppressive activity | binding affinity for CyP-A (CyP-A): retains binding affinity for CyP-A
